Patent US20250179049A1, “SALTS OF HETEROCYCLIC INHIBITORS OF MONOCARBOXYLATE TRANSPORTER 4 FOR THE TREATMENT OF DISEASE” (Vettore, LLC, priority 2022, published 2025)
Counter-ions that a name gives are not always drawn.

Experiments:
[1] = test system: primary human lung fibroblasts; test: Fibroblast-to-myofibroblast transition; assay type: cell-based
Source text: The reduction of lung fibrosis upon MCT4 inhibition is coupled with changes in serum metabolites that indicates turnover of extracellular matrix protein and increased fatty acid oxidation.

[2] = test system: bleomycin-induced lung fibrosis; test: Bleomycin-induced lung fibrosis model; assay type: in vivo, mice
Experimental: The reduction of lung fibrosis upon MCT4 inhibition is coupled with changes in serum metabolites that indicates turnover of extracellular matrix protein and increased fatty acid oxidation. […] The effects of Compound 1, alone or in combination with approved IPF drugs pirfenidone or nintedanib, were studied in the bleomycin-induced lung fibrosis model in therapeutic mode. Compound 1 was dosed at 3 mg/kg, BID; pirfenidone was dosed at 100 mg/kg, BID; and nintedanib was dosed at 50 mg/kg, QD, all via oral gavage.

[3] = test system: beagle dogs; test: Respiratory and cardiovascular assessment in ECG-telemetered dogs; assay type: in vivo
Experimental: (§1) The safety pharmacology of Compound 1 and its tris salt was evaluated in an in vitro human ether-à-go-go related gene (hERG) assay, a behavioral study in Sprague Dawley rats, and a respiratory and cardiovascular system assessment using electrocardiogram (ECG)-telemetered beagle dogs. […] Determination of the IC50 against the hERG channel was precluded due to potential cytotoxicity at doses >300 μM. […] Cardiovascular safety pharmacology assessments noted decreases in PR interval duration that were detected up to 9 hours post administration of Compound 1 and were usually dose related and associated with potential changes in heart rate. These changes were considered biologically insignificant due to their small magnitude (up to 10 msec compared to vehicle control), association with potential increases in heart rate, and the absence of correlated findings.

[4] = test system: Sprague Dawley rats; test: Behavioral safety pharmacology study; assay type: in vivo; conditions: oral dose of up to 400 mg/kg, male rats (highest dose tested)
Experimental: as §1

[5] = test system: Sprague Dawley rats; test: 28-day repeat-dose toxicity study in rats; assay type: in vivo; conditions: male, rat, in vivo, 400 mg/kg/day, 28 days
Experimental: Compound 1 was administered to Sprague Dawley rats by oral gavage at doses of 25, 75, and 250 mg/kg/day (females) and 40, 120, and 400 mg/kg/day (males) for 28 days. Compound 1-related mortality occurred in 8 of the 15 toxicity males administered 400 mg/kg/day beginning on Day 8 through 24. […] Target tissues included bone marrow, spleen, thymus, liver, lymph nodes, epididymides, seminal vesicles, prostate, testes, uterus, and ovaries.
Compound 1 tris salt was evaluated for safety in 7- and 28-day studies in rats and dogs. […] The NOAELs for this rat study were 120 mg/kg/day for males and 75 mg/kg/day for females. […] The NOAEL determined in the 28-day dog GLP study was 150 mg/kg/day. These correspond to human equivalent doses (HEDs) of: • Rat: 75 mg/kg×0.16=12 mg/kg • Dog: 150 mg/kg×0.54=81 mg/kg

[6] = test system: beagle dogs; test: Range finding toxicity study in dogs; assay type: in vivo
Experimental: Compound 1 was administered to beagle dogs by oral gavage in a range finding study at doses of 30, 79, 240, or 790 mg/kg. […] Compound 1 was administered at doses of 10, 50, and 150 mg/kg/day in the pivotal repeat dose toxicity studies for 28 days.

[7] = biological target: hERG channel (Homo sapiens, UniProt Q12809); test: in vitro hERG assay; assay type: cell-based; conditions: determination precluded by potential cytotoxicity at >300 μM; read-out: half maximal inhibitory concentration (IC50) against the hERG channel
Experimental: as §1

[8] = Dog pharmacokinetics, oral gavage suspension; assay type: in vivo, beagle dogs; conditions: for MRT last / half-life: dog, plasma; for MRT last / half-life / ClF: male beagle dogs, oral suspension, mean
Experimental: In a follow-up study, the pharmacokinetics of tris salt Compound 1 were investigated via oral gavage of a 0.5% methylcellulose in saline formulation. Two Groups of animals were tested. In Group 1, three male beagle dogs were administered a single dose of 3 mg/kg Compound 1 tris salt. In Group 2, three male beagle dogs were administered a single dose of 30 mg/kg Compound 1 tris salt. Plasma was collected pre-dose, and at 0.5, 1, 2, 4, 8, 12 and 24 hours post-dose via puncture of peripheral veins.
LC MS-MS Analysis. Liquid Chromatography with tandem mass spectrometry was used to determine plasma concentrations of Compound 1 Free Acid and Compound 1 Tris Salt in plasma samples collected at prescribed time points. Instrumentation included YMC-Triart C18, S-5 μm (50×2.1 mm) HPLC column, liquid chromatograph Shimadzu LC-30AD with communications bus module CBM-20A and Auto SIL-20AC HT; and a Triple Quad 5500 LC/MS/MS instrument. Tolbutamide was used as an internal standard.

Chain of hERG channel (Q12809 whole entry): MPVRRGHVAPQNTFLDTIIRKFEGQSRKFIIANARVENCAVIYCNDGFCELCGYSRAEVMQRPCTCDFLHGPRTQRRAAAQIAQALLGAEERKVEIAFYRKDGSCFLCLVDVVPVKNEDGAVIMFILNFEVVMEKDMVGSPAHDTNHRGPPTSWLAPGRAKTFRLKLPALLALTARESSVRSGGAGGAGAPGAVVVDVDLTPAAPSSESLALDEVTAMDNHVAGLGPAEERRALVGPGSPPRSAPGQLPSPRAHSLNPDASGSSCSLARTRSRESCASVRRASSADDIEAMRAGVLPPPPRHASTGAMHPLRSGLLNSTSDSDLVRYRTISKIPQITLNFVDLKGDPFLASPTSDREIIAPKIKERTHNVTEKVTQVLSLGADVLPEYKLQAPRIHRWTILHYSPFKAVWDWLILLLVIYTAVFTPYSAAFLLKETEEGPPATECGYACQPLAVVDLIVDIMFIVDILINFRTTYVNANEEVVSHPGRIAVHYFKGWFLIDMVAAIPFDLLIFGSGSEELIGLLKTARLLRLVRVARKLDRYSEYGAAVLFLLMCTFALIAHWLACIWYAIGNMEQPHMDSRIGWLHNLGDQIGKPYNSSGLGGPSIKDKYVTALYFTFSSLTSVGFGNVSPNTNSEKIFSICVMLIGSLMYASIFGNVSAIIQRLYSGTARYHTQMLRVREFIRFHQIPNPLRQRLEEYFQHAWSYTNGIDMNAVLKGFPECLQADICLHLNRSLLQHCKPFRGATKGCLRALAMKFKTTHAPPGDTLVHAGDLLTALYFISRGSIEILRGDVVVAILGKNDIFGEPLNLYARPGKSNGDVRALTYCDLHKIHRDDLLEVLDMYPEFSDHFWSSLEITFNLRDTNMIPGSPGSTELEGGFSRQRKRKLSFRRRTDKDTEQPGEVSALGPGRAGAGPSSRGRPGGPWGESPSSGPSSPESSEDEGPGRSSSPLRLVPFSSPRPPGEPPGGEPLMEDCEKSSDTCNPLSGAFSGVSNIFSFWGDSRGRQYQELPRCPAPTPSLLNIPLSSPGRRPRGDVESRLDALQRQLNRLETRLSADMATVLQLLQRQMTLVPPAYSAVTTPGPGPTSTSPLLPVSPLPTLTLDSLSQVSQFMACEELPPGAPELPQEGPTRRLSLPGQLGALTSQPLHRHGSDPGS

CC(C)(OCc1cc(-c2cccc(OC3CCC3)c2)n(-c2ccccc2N2CCC2)n1)C(=O)O [Compound 1, 2-((1-(2-(azetidin-1-yl)phenyl)-5-(3-cyclobutoxyphenyl)-1H-pyrazol-3-yl)methoxy)-2-methylpropanoic acid]
Fibroblast-to-myofibroblast transition [1]: attenuates the fibroblast-to-myofibroblast transition
Production of alpha-smooth muscle actin (αSMA) [1]: reducing the production
Lung fibrosis ([2]; aged (>60 week) mice): reduced lung fibrosis
Lung lactate levels ([2]; aged (>60 week) mice): reduction in lung lactate levels
Lung fibrosis ([2]; bleomycin-induced mouse model of IPF): reduces lung fibrosis
Minimal efficacious dose ([2]; twice daily (BID), bleomycin-induced mouse model of IPF): 3 mg/kg
Time post administration at which decreases in PR interval duration were detected ([3]; dogs): up to 9 hours
Decrease in PR interval duration, magnitude ([3]; dogs, compared to vehicle control): up to 10 msec
Respiratory effects ([3]; oral dose of up to 150 mg/kg, dogs (highest dose tested)): no significant respiratory effects
Behavioral effects [4]: no Compound 1-related behavioral effects
Compound-related mortality [5]: 8 of the 15
Dose at which decreased thymus weights were observed ([6]; dogs): ≥ 240 mg/kg
Clinical observations ([6]; dogs, oral gavage 30, 79, 240, or 790 mg/kg, all dose levels): Watery feces and emesis were occasionally observed
Electrolyte changes ([6]; male dogs, 790 mg/kg): increased potassium and decreased sodium and chloride
IC50 [7]: > 300 µM

CC(C)(OCc1cc(-c2cccc(OC3CCC3)c2)n(-c2ccccc2N2CCC2)n1)C(=O)O [Compound 1 tris salt, tris salt of 2-((1-(2-(azetidin-1-yl)phenyl)-5-(3-cyclobutoxyphenyl)-1H-pyrazol-3-yl)methoxy)-2-methylpropanoic acid]
MRT last ([8]; 3 mg/kg): 2.34 h
half-life ([8]; 3 mg/kg): 4.74 h
MRT last ([8]; 30 mg/kg): 3.81 h
half-life ([8]; 30 mg/kg): 3.69 h
Clinical symptoms ([8]; dogs, single 3 or 30 mg/kg oral gavage dose): No abnormal clinical symptoms were observed
ClF ([8]; 3 mg/kg): 602
ClF ([8]; 30 mg/kg): 547
